US20220324835A1 (Nurix Therapeutics, Inc., priority 2018, published 2022)

Columns and labels:
[1] = tested on: T-cell; experiment: IL-2 secretion from T-cells stimulated with anti-CD3 antibody alone (Biological Example 2); assay type: cell-based; conditions: primary human total T-cells, read-out: IL-2 secretion, Anti-CD3 stimulation, fold change over baseline; for fold induction at 1 µM: 1 μM compound; for fold induction at 8 µM: 8 μM compound
[2] = tested on: T-cell; experiment: CD25 cell surface staining on T-cells stimulated with anti-CD3 antibody alone (Biological Example 2); assay type: cell-based; conditions: primary human total T-cells, baseline = anti-CD3/anti-CD28 stimulated cells without inhibitor, read-out: CD25 staining, Anti-CD3 stimulation, fold change over baseline; for fold induction at 1 µM: 1 μM compound; for fold induction at 8 µM: 8 μM compound
[3] = target: T1, Cbl-b (Homo sapiens, UniProt Q13191); experiment: Cbl-b activity assay (Cbl-b inhibition assay), TR-FRET of Cbl-b interaction with UbcH5B-Ub; assay type: biochemical; conditions: assay buffer with 100 mM NaCl, 60 nM Src kinase; read-out: Cbl-b activity IC50
Procedure, shortened: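 Compound-treated Cbl-b was incubated 1.5 h with Src kinase (60 nM final; 30 nM for asterisked values, which also used 50 mM instead of 100 mM NaCl), 1 mM ATP and 5 mM MgCl2. Binding to fluorescent Ub-loaded UbcH5B (C85K mutant) was then read by TR-FRET after 1 h more.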

[4] = tested on: T-cell; experiment: CD25 cell surface staining on T-cells co-stimulated with anti-CD3 and anti-CD28 antibody (Biological Example 2); assay type: cell-based, human; conditions: Homo sapiens, T-cell, primary human total T-cells, baseline = anti-CD3/anti-CD28 stimulated cells without inhibitor, read-out: CD25 staining, Anti-CD3/Anti-CD28 stimulation, fold change over baseline; for fold induction at 0.3 µM: 0.3 μM compound; for fold induction at 1 µM: 1 μM compound; for fold induction at 4 µM: 4 μM compound
Procedure, shortened: (§1)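 Values are fold-change over baseline: readings (IL-2 release, CD25 staining) from inhibitor-treated T-cells divided against untreated cells […]. No detailed procedure stated.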

[5] = target: T1, Cbl-b; experiment: Cbl-b inhibition assay (Cbl-b activity assay, FRET, Biological Example 1; 100 mM NaCl, 60 nM Src kinase); assay type: biochemical; conditions: upper bound stated in text lists; read-out: IC50 values in the Cbl-b inhibition assay of Biological Example 1
Procedure, shortened: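 Inhibition is read as loss of FRET signal. The signal arises when Src-phosphorylated, N-terminal biotinylated Avi-Cbl-b (captured by streptavidin-terbium) binds UbcH5B carrying covalently linked Bodipy-Fluorescein-tagged ubiquitin.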

[6] = target: Cbl-b (residues 36-427) (Homo sapiens, UniProt Q13191); experiment: Cbl-b binding assay (SPR, Biacore T200); conditions: 20° C., 1:1 binding model
Procedure, shortened: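 NeutrAvidin capture chip, 20° C; 50 s injections at 50 μl/min, 90-180 s dissociation; 0.3 M NaCl regeneration. Asterisked column: 50 mM NaCl buffer and 30 nM Src kinase in place of 100 mM NaCl and 60 nM Src kinase. 1:1 fit.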

[7] = tested on: T-cell; experiment: IL-2 secretion from T-cells co-stimulated with anti-CD3 and anti-CD28 antibody (Biological Example 2); assay type: cell-based, human; conditions: Homo sapiens, T-cell, primary human total T-cells, baseline = anti-CD3/anti-CD28 stimulated cells without inhibitor, read-out: IL-2 secretion, Anti-CD3/Anti-CD28 stimulation, fold change over baseline; for fold induction at 0.3 µM: 0.3 μM compound; for fold induction at 1 µM: 1 μM compound; for fold induction at 4 µM: 4 μM compound
Procedure, shortened: as §1

Cbl-b (residues 36-427), sequence (Q13191 36-427): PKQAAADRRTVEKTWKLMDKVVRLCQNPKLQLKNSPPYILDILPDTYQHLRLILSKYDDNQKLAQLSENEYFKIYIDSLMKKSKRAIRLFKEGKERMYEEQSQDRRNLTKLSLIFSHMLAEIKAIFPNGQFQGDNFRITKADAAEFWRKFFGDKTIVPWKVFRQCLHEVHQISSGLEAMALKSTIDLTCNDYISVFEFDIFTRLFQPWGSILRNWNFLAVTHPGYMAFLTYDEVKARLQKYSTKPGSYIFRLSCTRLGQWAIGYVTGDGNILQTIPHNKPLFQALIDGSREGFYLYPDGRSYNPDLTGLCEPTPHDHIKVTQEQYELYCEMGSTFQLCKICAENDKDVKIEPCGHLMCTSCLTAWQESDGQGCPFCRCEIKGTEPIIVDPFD
T1 sequence (Q13191 36-427): as above

SMILES | fold induction at 1 µM [1] | fold induction at 8 µM [1] | fold induction at 1 µM [2] | fold induction at 8 µM [2] | IC50 [3] | fold induction at 0.3 µM [4] | fold induction at 1 µM [4] | fold induction at 4 µM [4] | IC50 [5] | Kd [6] | fold induction at 0.3 µM [7] | fold induction at 1 µM [7] | fold induction at 4 µM [7]
CC(O)c1cc2c(c(C(F)(F)F)c1)CN(c1cccc([C@@](C)(F)C(F)(F)c3nncn3C)c1)C2=O (stereo partly drawn) [Compound 446, 6-(1-hydroxyethyl)-2-(3-((R)-1,1,2-trifluoro-1-(4-methyl-4H-1,2,4-triazol-3-yl)propan-2-yl)phenyl)-4-(trifluoromethyl)isoindolin-1-one] | 0.051 to 0.1 | > 0.201 | 0.801 to 1 | > 1 | < 100 nM | 1.01 to 1.3 | 1.01 to 1.3 | 1.01 to 1.3 | ≤ 100 nM | 100 to 300 nM | 1.01 to 2.5 | 1.01 to 2.5 | 5 to 7.5
Cc1conc1C[C@@H](C)c1cccc(N2Cc3c(cccc3C(F)(F)F)C2=O)c1 [Compound 367a, (R)-2-(3-(1-(4-Methylisoxazol-3-yl)propan-2-yl)phenyl)-4-(trifluoromethyl)isoindolin-1-one] | 0.051 to 0.1 | 0.151 to 0.2 | 0.601 to 0.8 | 0.801 to 1 | 100 to 300 nM | 1.01 to 1.3 | < 1 | 1.01 to 1.3 | ≤ 300 nM | 1000 to 3000 nM | < 1 | < 1 | 1.01 to 2.5
C[C@@H]1[C@@H](c2nncn2C)[C@H]1c1cccc(N2Cc3c(cccc3C(F)(F)F)C2=O)c1 [Compound 375, 2-[3-[(1 S,2S,3R)-2-methyl-3-(4-methyl-4H-1,2,4-triazol-3-yl)cyclopropyl]phenyl]-4-(trifluoromethyl)-2,3-dihydro-1H-isoindol-1-one] | > 0.201 | > 0.201 | > 1 | > 1 | < 100 nM | 1.01 to 1.3 | 1.31 to 1.5 | 1.31 to 1.5 | ≤ 100 nM | < 100 nM | 2.51 to 5 | 5 to 7.5 | > 7.5
C[C@H](Cc1nncn1C)c1cccc(N2Cc3c(cc(N(C)[C@H]4CCNC4)cc3C(F)(F)F)C2=O)c1 [Compound 380, 6-(methyl((S)-pyrrolidin-3-yl)amino)-2-(3-((R)-1-(4-methyl-4H-1,2,4-triazol-3-yl)propan-2-yl)phenyl)-4-(trifluoromethyl)isoindolin-1-one] | 0.151 to 0.2 | > 0.201 | 0.801 to 1 | > 1 | < 100 nM | 1.31 to 1.5 | 1.31 to 1.5 | 1.51 to 1.75 | ≤ 100 nM | < 100 nM | 2.51 to 5 | 2.51 to 5 | > 7.5
Cn1cnnc1C[C@H](c1cccc(N2Cc3c(cccc3C(F)(F)F)C2=O)c1)C(F)(F)F [Compound 471a, (R)-2-(3-(1,1,1-trifluoro-3-(4-methyl-4H-1,2,4-triazol-3-yl)propan-2-yl)phenyl)-4-(trifluoromethyl)isoindolin-1-one] | 0.051 to 0.1 | 0.101 to 0.15 | 0.601 to 0.8 | 0.801 to 1 | 100 to 300 nM | 1.01 to 1.3 | 1.01 to 1.3 | 1.01 to 1.3 | ≤ 300 nM | 301 to 1000 nM | 1.01 to 2.5 | 1.01 to 2.5 | 1.01 to 2.5
C[C@H](Cc1nncn1C)c1cccc(N2Cc3c(cc(-n4cccn4)cc3C(F)(F)F)C2=O)c1 [Compound 384, (R)-2-(3-(1-(4-methyl-4H-1,2,4-triazol-3-yl)propan-2-yl)phenyl)-6-(1H-pyrazol-1-yl)-4-(trifluoromethyl)isoindolin-1-one] | > 0.201 | > 0.201 | > 1 | > 1 | < 100 nM | 1.31 to 1.5 | 1.51 to 1.75 | 1.51 to 1.75 | ≤ 100 nM | < 100 nM | 2.51 to 5 | > 7.5 | > 7.5
Cc1[nH]ncc1-c1cc2c(c(C(F)(F)F)c1)CN(c1cccc([C@H](C)Cc3nncn3C)c1)C2=O [Compound 381, 6-(5-methyl-1H-pyrazol-4-yl)-2-{3-[(2R)-1-(4-methyl-4H-1,2,4-triazol-3-yl)propan-2-yl]phenyl}-4-(trifluoromethyl)-2,3-dihydro-1H-isoindol-1-one] | 0.151 to 0.2 | > 0.201 | 0.801 to 1 | > 1 | < 100 nM | 1.31 to 1.5 | 1.51 to 1.75 | 1.51 to 1.75 | ≤ 100 nM | < 100 nM | 2.51 to 5 | 5 to 7.5 | > 7.5
C[C@H](CO)Nc1cc([C@H](C)Cc2nncn2C)cc(N2Cc3c(cccc3C(F)(F)F)C2=O)n1 [Compound 366, 2-(6-((R)-1-hydroxypropan-2-ylamino)-4-((R)-1-(4-methyl-4H-1,2,4-triazol-3-yl)propan-2-yl)pyridin-2-yl)-4-(trifluoromethyl)isoindolin-1-one] | 0.051 to 0.1 | > 0.201 | 0.801 to 1 | > 1 | 100 to 300 nM | 1.01 to 1.3 | 1.01 to 1.3 | 1.31 to 1.5 | ≤ 300 nM | 100 to 300 nM | 1.01 to 2.5 | 2.51 to 5 | 5 to 7.5
C[C@H](Cc1nncn1C)c1cccc(N2Cc3c(cc(N[C@H]4CCNC4)cc3C(F)(F)F)C2=O)c1 [Compound 379, 2-(3-((R)-1-(4-methyl-4H-1,2,4-triazol-3-yl)propan-2-yl)phenyl)-6-(((S)-pyrrolidin-3-yl)amino)-4-(trifluoromethyl)isoindolin-1-one] | 0.101 to 0.15 | 0.151 to 0.2 | 0.801 to 1 | > 1 | < 100 nM | 1.01 to 1.3 | 1.01 to 1.3 | 1.01 to 1.3 | ≤ 100 nM | < 100 nM | 1.01 to 2.5 | 2.51 to 5 | 2.51 to 5
Cn1cnnc1CC1(c2cccc(N3Cc4c(cc(CN5CC[C@H](F)C5)cc4C4CC4)C3=O)c2)COC1 [Example 554, (S)-4-cyclopropyl-6-((3-fluoropyrrolidin-1-yl)methyl)-2-(3-(3-((4-methyl-4H-1,2,4-triazol-3-yl)methyl)oxetan-3-yl)phenyl)isoindolin-1-one] | 0.151 to 0.2 |  | > 1 |  | < 100 nM | 1.31 to 1.5 | 1.31 to 1.5 |  | ≤ 100 nM | < 100 nM | > 7.5 | > 7.5 | 
